According to PMC8635421, “Illumination of serotonin transporter mechanism and role of the allosteric site” (Science Advances, 2021):

Key:
SERT [1] = target: T1, SERT (Homo sapiens, UniProt P31645); assay: biochemical; type: binding; details: competition with [3H]paroxetine, SERT in nanodiscs, 100 mM NaCl, 20 nM [3H]paroxetine, n = 3 technical replicates
T1 construct: N- and C-terminally truncated but otherwise wild-type (ΔN72, ΔC13); GFP (C); Strep tag (purification tag); made in house; host or cells: HEK-293S GnTI- cells, baculovirus-mediated transduction
T1 sequence (P31645 73-617 limits assumed): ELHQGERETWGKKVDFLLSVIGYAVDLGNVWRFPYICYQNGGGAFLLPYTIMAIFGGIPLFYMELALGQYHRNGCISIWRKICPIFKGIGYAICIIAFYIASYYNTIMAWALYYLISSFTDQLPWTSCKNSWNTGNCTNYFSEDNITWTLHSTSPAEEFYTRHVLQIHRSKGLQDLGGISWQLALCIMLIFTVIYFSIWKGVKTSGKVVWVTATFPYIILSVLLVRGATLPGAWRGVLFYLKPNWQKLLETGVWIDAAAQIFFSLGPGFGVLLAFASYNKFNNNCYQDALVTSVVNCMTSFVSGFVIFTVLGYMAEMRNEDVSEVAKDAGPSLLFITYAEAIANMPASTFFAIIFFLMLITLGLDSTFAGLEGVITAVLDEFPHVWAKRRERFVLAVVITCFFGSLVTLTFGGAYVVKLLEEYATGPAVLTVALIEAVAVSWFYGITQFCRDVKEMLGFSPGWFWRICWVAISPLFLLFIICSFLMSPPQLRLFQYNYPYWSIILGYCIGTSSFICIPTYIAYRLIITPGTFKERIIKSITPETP
Method: (§1) All the competition-binding experiments were performed using scintillation proximity assays (SPAs) ([58]) with Cu-YSi beads (1 mg ml^−1) in SPA buffer containing 20 mM tris-HCl (pH 8), 100 mM NaCl, or 100 mM KCl. […] For the [^3H]paroxetine experiments, 1 nM SERT was used along with 0.3 μM to 10 mM of the cold competitors and 20 nM [^3H]paroxetine. […] Experiments were measured in triplicate. The error bars for each data point represent the SEM Ki values and were determined with the Cheng-Prusoff equation ([59]) in GraphPad Prism.

SERT allosteric site = target: T2, SERT allosteric site (Homo sapiens, UniProt P31645, I291A/T439S); assay: [3H]VLZ competition binding (SPA) in the presence of imipramine, allosteric site; details: 800 nM [3H]VLZ and 800 nM imipramine, NaCl; read-out: Ki, competition with [3H]VLZ (affinity for the allosteric site)
T2 construct: GFP (C); Strep tag (purification tag); made in house; host or cells: HEK-293S GnTI- cells, baculovirus-mediated transduction
T2 sequence (P31645 whole entry I291A/T439S): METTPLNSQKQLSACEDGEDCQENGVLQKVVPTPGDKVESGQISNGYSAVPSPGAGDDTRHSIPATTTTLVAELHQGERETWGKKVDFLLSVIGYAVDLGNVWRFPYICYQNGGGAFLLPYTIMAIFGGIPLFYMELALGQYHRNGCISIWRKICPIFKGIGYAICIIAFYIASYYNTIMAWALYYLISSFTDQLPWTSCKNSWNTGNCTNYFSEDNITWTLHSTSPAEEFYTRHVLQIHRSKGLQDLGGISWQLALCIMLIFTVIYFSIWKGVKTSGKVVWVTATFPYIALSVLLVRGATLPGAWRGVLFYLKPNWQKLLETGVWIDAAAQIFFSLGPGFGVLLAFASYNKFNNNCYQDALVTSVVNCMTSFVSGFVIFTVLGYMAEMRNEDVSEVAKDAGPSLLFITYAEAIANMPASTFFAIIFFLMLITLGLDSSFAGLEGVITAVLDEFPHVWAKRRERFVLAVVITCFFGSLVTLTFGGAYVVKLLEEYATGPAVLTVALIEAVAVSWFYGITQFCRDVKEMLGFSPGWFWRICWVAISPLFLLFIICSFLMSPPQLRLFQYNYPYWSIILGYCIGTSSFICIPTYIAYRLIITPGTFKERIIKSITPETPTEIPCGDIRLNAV
Method: as §1

SERT [2] = target: T1, SERT; assay: Uptake of 3H-labeled N-indole methyl derivative in HEK-293S GnTI- cells transduced with ΔN72/C13 SERT; type: cell-based; details: 3H-labeled compound, fig. S3H
Method: To measure the uptake of the N-indole methyl derivative, 1 × 10^5 HEK-293S GnTI^− cells were transduced with viruses for ΔN72/C13 SERT. The cells were plated into 96-well plates coated with poly-D-lysine. After 24 hours, cells were washed with uptake buffer [25 mM Hepes-tris (pH 7), 130 mM NaCl, 5.4 mM KCl, 1.2 mM CaCl2, 1.2 mM MgSO4, 1 mM ascorbic acid, and 5 mM glucose]. The custom-synthesized [^3H]3-(2-aminoethyl)-1-methyl-1H-indol-5-ol hydrochloride isotope was diluted 1:1000 with unlabeled ligand, and a final concentration 0.78 to 100 μM was added to the cells. Uptake was stopped at 5 min by rapidly washing cells three times with 100 μl of uptake buffer, solubilizing with 20 μl of 1% Triton-X100, followed by addition of 200 μl of scintillation fluid to each well. A final concentration of 100 μM S-citalopram was added to the cells to estimate nonspecific counts. The amount of labeled 3-(2-aminoethyl)-1-methyl-1H-indol-5-ol hydrochloride was measured by counting in a standard 96-well plate using a MicroBeta scintillation counter.

| Structure (SMILES) | Ki (SERT [1]) [µM] | Ki (SERT allosteric site) [µM] | substrate for SERT (uptake) (SERT [2]) |
| --- | --- | --- | --- |
| Cl.Cn1cc(CCN)c2cc(O)ccc21 [3-(2-aminoethyl)-1-methyl-1H-indol-5-ol hydrochloride] | 5.4 ± 1 | 24.9 ± 5.4 | robust substrate |
| CNCCc1c[nH]c2ccc(O)cc12 [N-ω-methyl-5-hydroxytryptamine] | 2.8 ± 0.9 |  |  |
| CNCCc1c[nH]c2ccc(OC)cc12 [5-methoxy-N-methyltryptamine] | 3.9 ± 0.9 |  |  |
